Source: patent US9474755B2, “GLP-1 receptor modulators” (Receptos, Inc., priority 2014, dated 2016)

Target: T1, GLP-1R (Homo sapiens, UniProt P43220)
T1 construct: host or cells: CRE-bla CHO-K1
Assay: EC20 GLP-1(9-36) PAM cAMP Assay: dose response of compound in the presence of fixed concentration of GLP-1(9-36)
Format: cell-based
Settings: GLP-1R CRE-bla CHO-K1 cells, in presence of fixed concentration of GLP-1(9-36), 30 min at 37° C.
Experimental: EC20 GLP-1(9-36) PAM cAMP Assay: Dose Response of Compound in the Presence of Fixed Concentration of GLP-1 (9-36).
GLP-1R CRE-bla CHO-K1 cells cultured in growth medium (DMEM-High glucose, 10% dialyzed FBS, 0.1 mM NEAA, 25 mM Hepes, 100 U/mL penicillin/100 μg/mL streptomycin, 5 μg/mL Blasticidin, 600 μg/mL Hygromycin) were trypsinized and plated in suspension into 384 well white flat bottom plates at 5000 cells/well in 12 μL assay buffer (Hanks Balanced Salt solution, 10 mM Hepes, 0.1% BSA, 10 pH 7.4). A 5× compound dose response curve (12-point) was generated in assay buffer containing 1.5 mM IBMX, 4% DMSO. GLP-1(9-36) was diluted to 4.2 μM in assay buffer containing 1.5 mM IBMX and 4% DMSO. The 5× compound dose response was added (3 μL), followed by 0.5 μL of GLP-1(9-36) and cells were incubated for 30 min at 37° C. Direct detection of cAMP was carried out using DiscoveRx HitHunter cAMP kit according to manufacturer's instructions and luminescence was read using a SpectraMax M5 plate reader. Luminescence was converted to total cAMP using a cAMP standard curve and data was analyzed by non-linear regression to determine the EC50 and Emax.

T1 sequence (P43220 24-463): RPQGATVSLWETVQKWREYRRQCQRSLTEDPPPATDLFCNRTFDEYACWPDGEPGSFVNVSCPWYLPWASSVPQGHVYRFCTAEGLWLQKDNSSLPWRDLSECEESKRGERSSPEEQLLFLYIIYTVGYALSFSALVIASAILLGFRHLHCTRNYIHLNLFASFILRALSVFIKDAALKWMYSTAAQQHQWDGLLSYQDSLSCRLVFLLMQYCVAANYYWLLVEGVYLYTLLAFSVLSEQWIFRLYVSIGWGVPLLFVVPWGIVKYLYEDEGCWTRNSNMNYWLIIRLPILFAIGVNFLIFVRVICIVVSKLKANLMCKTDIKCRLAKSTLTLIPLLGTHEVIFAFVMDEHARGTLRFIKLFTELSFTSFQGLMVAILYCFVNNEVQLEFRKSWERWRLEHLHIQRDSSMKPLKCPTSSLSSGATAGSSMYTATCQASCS
T1 sequence (P01275 100-127 partner limits assumed): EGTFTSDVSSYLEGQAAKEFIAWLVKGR

Compound | EC50 [nM]
CC[C@H]1CC[C@H](C2CC=C(c3cnc(-c4ccc(C[C@H](NC(=O)c5ccc(C(C)(C)C)s5)C(=O)NS(C)(=O)=O)cc4)nc3)CC2)CC1 (mixture of isomers) [Compound 109, 5-(tert-butyl)-N—((S)-3-(4-(5-((1RS,1′r,4′RS)-4′-ethyl-[1,1′-bi(cyclohexan)]-3-en-4-yl)pyrimidin-2-yl)phenyl)-1-(methylsulfonamido)-1-oxopropan-2-yl)thiophene-2-carboxamide] | < 500
C[C@@H](NC(=O)[C@H](Cc1ccc(-c2ncc(C3=Cc4ccccc4C3)cn2)cc1)NC(=O)c1ccc(C(C)(C)C)s1)C(=O)O [Compound 50] | 500 to 2500
CCCC1CCC(C2CC=C(c3cnc(-c4ccc(CC(NC(=O)c5ccc(C(C)(C)C)s5)C(=O)N5CC(C(=O)O)C5)cc4)nc3)CC2)CC1C (stereo not shown) [Compound 85] | < 500
CCCC1CCC(C2CCC(c3cnc(-c4ccc(C[C@H](NC(=O)c5cnn(C(C)(C)C)c5)C(=O)N5CC(C(=O)O)C5)cc4)nc3)CC2)CC1 (stereo partly shown) [Compound 18] | 5000 to 10000
CC[C@H]1CC[C@H](C2CC=C(c3cnc(-c4ccc(C[C@H](NC(=O)c5ccc(CC(C)C)s5)C(=O)N5CC(C(=O)O)C5)cc4)nc3)CC2)CC1 (stereo partly shown) [Compound 96] | < 500
CCCC1CCC(C2CC=C(c3cnc(-c4ccc(C[C@H](NC(=O)c5ccc(C6CC6)s5)C(=O)N5CC(C(=O)O)C5)cc4)nc3)CC2)CC1 (stereo partly shown) [Compound 34] | < 500
CC[C@H]1CC[C@H](C2CC=C(c3cnc(-c4ccc(C[C@H](NC(=O)c5ccc(C(C)C)s5)C(=O)N5CC(C(=O)O)C5)cc4)nc3)CC2)CC1 (stereo partly shown) [Compound 103] | < 500
CC[C@H]1CC[C@H](C2CC=C(c3cnc(-c4ccc(C[C@H](NC(=O)c5ccc(C(C)(C)C)s5)C(=O)N[C@H](C)C(=O)O)cc4)nc3)CC2)CC1 (stereo partly shown) [Compound 106] | < 500
CCCC1CCC(C2CC=C(c3cnc(-c4ccc(C[C@H](NC(=O)c5ccc(C(C)C)s5)C(=O)N5CC(C(=O)O)C5)cc4)nc3)CC2)CC1 (stereo partly shown) [Compound 17] | < 500
C[C@@H](NC(=O)[C@H](Cc1ccc(-c2ncc(C3=CCC4(CC3)OCCO4)cn2)cc1)NC(=O)c1ccc(C(C)(C)C)s1)C(=O)O [Compound 66] | 2500 to 5000
CCCC1CCC(C2CC=C(c3cnc(-c4ccc(C[C@@H](NC(=O)c5ccc(C(C)(C)C)s5)C(=O)N5CC(C(=O)O)C5)cc4)nc3)CC2)CC1 (stereo partly shown) [Compound 124] | 500 to 2500
CCCC1CCC(C2CCC(c3cnc(-c4ccc(C[C@H](NC(=O)c5ccc(C6(C)CC6)cc5)C(=O)N5CC(C(=O)O)C5)cc4)nc3)CC2)CC1 (stereo partly shown) [Compound 25] | 2500 to 5000
CCCC1CCC(C2CC=C(c3cnc(-c4ccc(C[C@H](NC(=O)c5ccc(CC)cc5)C(=O)N5CC(C(=O)O)C5)cc4)nc3)CC2)CC1 (stereo partly shown) [Compound 21] | < 500
CC[C@H]1CC[C@H](C2CC=C(c3cnc(-c4ccc(C[C@H](NC(=O)c5ccc(OC(C)(C)C)cc5)C(=O)N5CC(C(=O)O)C5)cc4)nc3)CC2)CC1 (stereo partly shown) [Compound 95] | 500 to 2500
CCCC1CCC(C2CC=C(c3cnc(-c4ccc(C[C@@H](NC(=O)c5ccc(C(C)(C)C)s5)C(=O)N5CC(C(=O)O)C5)cc4)nc3)CC2)CC1 (stereo partly drawn) [Compound 81, 1-((2R)-2-(5-(tert-butyl)thiophene-2-carboxamido)-3-(4-(5-(4′-propyl-[1,1′-bi(cyclohexan)]-3-en-4-yl)pyrimidin-2-yl)phenyl)propanoyl) azetidine-3-carboxylic acid] | 500 to 2500
COC(=O)C1CC=C(c2cnc(-c3ccc(C[C@H](NC(=O)c4ccc(C(C)(C)C)s4)C(=O)N[C@H](C)C(=O)O)cc3)nc2)CC1 (stereo partly shown) [Compound 62] | < 500
CC(C)(C)c1ccc(C(=O)N[C@@H](Cc2ccc(-c3ncc(C4=CCC(C5CCCCC5)CC4)cn3)cc2)C(=O)O)s1 (stereo partly shown) [Compound 120] | 500 to 2500
CCCC1CCC(C2CC=C(c3cnc(-c4ccc(C[C@H](NC(=O)c5ccc(C(C)(C)C)s5)C(=O)NCCC(=O)O)cc4)nc3)CC2)CC1 (stereo partly shown) [Compound 71] | < 500
CCCC1CCC(C2CC=C(c3cnc(-c4ccc(C[C@H](NC(=O)c5ccc(C(C)(C)C)nc5)C(=O)N5CC(C(=O)O)C5)cc4)nc3)CC2)CC1 (stereo partly shown) [Compound 29] | 500 to 2500
CCCC1CC=C(c2cnc(-c3ccc(C[C@H](NC(=O)c4ccc(C(C)(C)C)s4)C(=O)N4CC(C(=O)O)C4)cc3)nc2)CC1 (stereo partly shown) [Compound 39] | 500 to 2500
CC[C@H]1CC[C@H](C2CC=C(c3cnc(-c4ccc(C[C@H](NC(=O)c5ccc(C(C)(C)C)s5)C(=O)NCC5CCNC5)cc4)nc3)CC2)CC1 (stereo partly shown) [Compound 108] | 500 to 2500
CC[C@H]1CC[C@H](C2CC=C(c3cnc(-c4ccc(C[C@H](NC(=O)c5ccc(C(C)(C)C)cc5)C(=O)N5CC(C(=O)O)C5)cc4)nc3)CC2)CC1 (stereo partly shown) [Compound 94] | < 500
CCCCCC1CCC(C2CC=C(c3cnc(-c4ccc(C[C@H](NC(=O)c5ccc(C(C)(C)C)s5)C(=O)N[C@H](C)C(=O)O)cc4)nc3)CC2)CC1 (stereo partly shown) [Compound 2] | 5000 to 10000
C[C@@H](NC(=O)[C@H](Cc1ccc(-c2ncc(C3=CC(C)(C)CC(C)(C)C3)cn2)cc1)NC(=O)c1ccc(C(C)(C)C)s1)C(=O)O [Compound 59] | < 500

Second part, the molecule after the results:

EC50 [nM] | Compound
< 500 | CCC1CCC(C2CC=C(c3cnc(-c4ccc(C[C@H](NC(=O)c5ccc(C(C)(C)C)s5)C(=O)N[C@H](C)C(=O)O)cc4)nc3)CC2)CC1 (stereo partly shown) [Compound 70]
< 500 | CCC[C@H]1CC[C@H](C2CCC(c3cnc(-c4ccc(C[C@H](NC(=O)c5ccc(C(C)(C)C)s5)C(=O)N5CC(C(=O)O)C5)cc4)nc3)=C(C)C2)CC1 (stereo partly shown) [Compound 89]
2500 to 5000 | CCCC1CCC(C2CC=C(c3cnc(-c4ccc(C[C@H](NC(=O)c5ccc(C(C)(C)C)s5)C(=O)N[C@@H](CCN)C(=O)O)cc4)nc3)CC2)CC1 (stereo partly shown) [Compound 72]
< 500 | CCCC1CCC(C2CC=C(c3cnc(-c4ccc(C[C@H](NC(=O)c5ccc(C6CC6)cc5)C(=O)N5CC(C(=O)O)C5)cc4)nc3)CC2)CC1 (stereo partly shown) [Compound 24]
< 500 | CCCc1ccc(C2CC=C(c3cnc(-c4ccc(C[C@H](NC(=O)c5ccc(C(C)(C)C)s5)C(=O)O)cc4)nc3)CC2)cc1 (stereo partly shown) [Compound 121]
5000 to 10000 | C[C@@H](NC(=O)[C@H](Cc1ccc(-c2ncc(C3=CC(=O)CC(c4ccccc4)C3)cn2)cc1)NC(=O)c1ccc(C(C)(C)C)s1)C(=O)O (stereo partly shown) [Compound 49]
< 500 | CCCC1CCC(C2CC=C(c3cnc(-c4ccc(C[C@H](NC(=O)c5ccc(C(C)(C)C)s5)C(=O)N[C@H](C)C(=O)O)cc4)nc3)CC2)CC1 (stereo partly drawn) [Compound 1, ((2S)-2-(5-(tert-butyl)thiophene-2-carboxamido)-3-(4-(5-(4′-propyl-[1,1′-bi(cyclohexan)]-3-en-4-yl)pyrimidin-2-yl)phenyl)propanoyl)-D-alanine]
< 500 | CCCC1CCC(C2CC=C(c3cnc(-c4ccc(C[C@H](NC(=O)c5ccc(C(C)(C)C)s5)C(=O)N5CC[C@H](C(=O)O)C5)cc4)nc3)CC2)CC1 (stereo partly drawn) [Compound 7, (3S)-1-((2S)-2-(5-(tert-butyl)thiophene-2-carboxamido)-3-(4-(5-(4′-propyl-[1,1′-bi(cyclohexan)]-3-en-4-yl)pyrimidin-2-yl)phenyl)propanoyl)pyrrolidine-3-carboxylic acid]
2500 to 5000 | C[C@@H](NC(=O)[C@H](Cc1ccc(-c2ncc(C3=CCCC(NC(=O)OC(C)(C)C)C3)cn2)cc1)NC(=O)c1ccc(C(C)(C)C)s1)C(=O)O (stereo partly shown) [Compound 69]
500 to 2500 | CCCC1CCC(C2CC=C(c3cnc(-c4ccc(C[C@H](NC(=O)c5ccc(C(C)(C)C(F)(F)F)cc5)C(=O)N5CC(C(=O)O)C5)cc4)nc3)CC2)CC1 (stereo partly shown) [Compound 35]
500 to 2500 | CCCC1CC=C(c2cnc(-c3ccc(C[C@H](NC(=O)c4ccc(C(C)(C)C)s4)C(=O)N[C@H](C)C(=O)O)cc3)nc2)CC1 (stereo partly shown) [Compound 52]
< 500 | CC[C@H]1CC[C@H](C2CC=C(c3cnc(-c4ccc(C[C@H](NC(=O)c5ccc(C(F)(F)F)s5)C(=O)N5CC(C(=O)O)C5)cc4)nc3)CC2)CC1 (stereo partly shown) [Compound 98]
< 500 | CCCC1CCC(C2CC=C(c3cnc(-c4ccc(C[C@H](NC(=O)c5ccc(C(C)(C)C)s5)C(=O)S(C)(=O)=O)cc4)nc3)CC2)CC1 (stereo partly shown) [Compound 79]
< 500 | COCC1CCC(C2CC=C(c3cnc(-c4ccc(CC(NC(=O)c5ccc(C(C)(C)C)s5)C(=O)N5CC(C(=O)O)C5)cc4)nc3)CC2)CC1 (stereo not shown) [Compound 88]
< 500 | CCCC1CCC(C2CC=C(c3cnc(-c4ccc(C[C@H](NC(=O)c5ccc(CC(C)C)cc5)C(=O)N5CC(C(=O)O)C5)cc4)nc3)CC2)CC1 (stereo partly shown) [Compound 23]
< 500 | CCCC1CCC(C2CC=C(c3cnc(-c4ccc(C[C@H](NC(=O)c5ccc(C(C)(C)C)s5)C(=O)N5CCC[C@H]5C(=O)O)cc4)nc3)CC2)CC1 (stereo partly shown) [Compound 8]
< 500 | CCCc1ccc(C2CC=C(c3cnc(-c4ccc(C[C@H](NC(=O)c5ccc(C(C)(C)C)s5)C(=O)N5CC(C(=O)O)C5)cc4)nc3)CC2)cc1 (stereo partly shown) [Compound 47]
< 500 | CCC(C)(C)c1ccc(C(=O)N[C@@H](Cc2ccc(-c3ncc(C4=CCC([C@H]5CC[C@H](CC)CC5)CC4)cn3)cc2)C(=O)N2CC(C(=O)O)C2)cc1 (stereo partly shown) [Compound 101]
500 to 2500 | COC1CCC(C2CC=C(c3cnc(-c4ccc(C[C@H](NC(=O)c5ccc(C(C)(C)C)s5)C(=O)N5CC(C(=O)O)C5)cc4)nc3)CC2)CC1 (stereo partly shown) [Compound 48]
